Results as given in US9169254B2, “Spiroimidazolone derivative” (Chugai Seiyaku Kabushiki Kaisha, priority 2009, dated 2015).
Structures can show the parent of a compound that is named as a salt.

What follows are compounds tested against T1, human PTH1 receptor (Homo sapiens, UniProt Q03431) (assay: In vitro cAMP signal activity in HKRK-B7 cells (LLC-PK1 cells overexpressing the human PTH1 receptor)). Conditions: HKRK-B7 cells; compound at 1×10^−3 M; […]; 0.1 µM.
T1 sequence (Q03431 27-593): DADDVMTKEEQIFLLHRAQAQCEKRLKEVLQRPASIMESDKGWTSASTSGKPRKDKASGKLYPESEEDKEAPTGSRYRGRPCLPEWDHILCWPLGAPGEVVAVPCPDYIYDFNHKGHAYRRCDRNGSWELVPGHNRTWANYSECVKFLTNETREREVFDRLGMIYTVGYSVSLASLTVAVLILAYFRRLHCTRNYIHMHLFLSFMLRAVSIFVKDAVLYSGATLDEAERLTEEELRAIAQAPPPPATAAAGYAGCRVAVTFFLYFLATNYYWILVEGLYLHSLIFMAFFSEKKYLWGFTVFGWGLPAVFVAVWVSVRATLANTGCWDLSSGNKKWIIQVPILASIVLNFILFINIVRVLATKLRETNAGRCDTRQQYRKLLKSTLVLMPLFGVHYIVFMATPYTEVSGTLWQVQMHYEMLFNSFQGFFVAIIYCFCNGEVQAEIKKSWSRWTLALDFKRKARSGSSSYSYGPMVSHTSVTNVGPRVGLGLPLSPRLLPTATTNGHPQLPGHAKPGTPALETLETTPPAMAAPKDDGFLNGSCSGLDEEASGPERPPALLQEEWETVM
Format: cell-based

Row | SMILES | cAMP production activity (%)
1 | CNN(C)C(=O)c1cc(C)c(CCS(=O)(=O)N2CCC3(CC2)N=C(C2CCC(CCC(F)(F)F)CC2)NC3=O)c(C)c1 (stereo not shown) [Compound 888, 3,5-Dimethyl-4-(2-{4-oxo-2-[4-(3,3,3-trifluoro-propyl)-cyclohexyl]-1,3,8-triaza-spiro[4.5]dec-1-ene-8-sulfonyl}-ethyl)-benzoic acid N,N′-dimethyl-hydrazide] | 86

Same assay, conditions: HKRK-B7 cells; compound at 1×10^−3 M; cAMP produced as percentage of that produced by hPTH(1-34) at 100 nM

Row | cAMP production activity (%) | SMILES
2 | 4.3 | Cc1cc(C(=O)N(C)C)ccc1CCS(=O)(=O)N1CCC2(CC1)N=C(c1cccc(OC(F)(F)F)c1)N=C2NCC1CCCCC1 [Compound 898, 4-{2-[4-(cyclohexylmethyl-amino)-2-(3-trifluoromethoxy-phenyl)-1,3,8-triaza-spiro[4.5]deca-1,3-diene-8-sulfonyl]-ethyl}-3,N,N-trimethyl-benzamide]
3 | 12 | Cc1cc(C(=O)N(C)C)ccc1CCS(=O)(=O)N1CCC2(CC1)N=C(c1cccc(OC(F)(F)F)c1)N=C2N(C)C [Compound 899, 4-{2-[4-dimethylamino-2-(3-trifluoromethoxy-phenyl)-1,3,8-triaza-spiro[4.5]deca-1,3-diene-8-sulfonyl]-ethyl}-3,N,N-trimethyl-benzamide]
4 | 90 | Cc1cc(C(=O)N(C)C)ccc1CCS(=O)(=O)N1CCC2(CC1)N=C(c1cccc(OC(F)(F)F)c1)N/C2=N\O [Compound 900, 4-{2-[4-[(Z)-hydroxyimino]-2-(3-trifluoromethoxy-phenyl)-1,3,8-triaza-spiro[4.5]dec-1-ene-8-sulfonyl]-ethyl}-3,N,N-trimethyl-benzamide]
5 | 1.9 | CO/N=C1\NC(c2cccc(OC(F)(F)F)c2)=NC12CCN(S(=O)(=O)CCc1ccc(C(=O)N(C)C)cc1C)CC2 [Compound 901, 4-{2-[4-[(Z)-methoxyimino]-2-(3-trifluoromethoxy-phenyl)-1,3,8-triaza-spiro[4.5]dec-1-ene-8-sulfonyl]-ethyl}-3,N,N-trimethyl-benzamide]
6 | 67 | COCCC1CCC(C2=NC3(CCN(S(=O)(=O)CCc4ccc(C(=O)N(C)C)cc4C)CC3)C(=O)N2)CC1 (stereo not shown) [Compound 902, 4-(2-{2-[4-(2-Methoxy-ethyl)-cyclohexyl]-4-oxo-1,3,8-triaza-spiro[4.5]dec-1-ene-8-sulfonyl}-ethyl)-3,N,N-trimethyl-benzamide]
7 | 56 | CC(=O)Nc1ccc(CCS(=O)(=O)N2CCC3(CC2)N=C(C2CCCC2)NC3=O)c(C)c1 [Compound 903, N-{4-[2-(2-Cyclopentyl-4-oxo-1,3,8-triaza-spiro[4.5]dec-1-ene-8-sulfonyl)-ethyl]-3-methyl-phenyl}-acetamide]
8 | 69 | CC(=O)Nc1ccc(CCS(=O)(=O)N2CCC3(CC2)N=C(C2CCC(C(F)(F)F)CC2)NC3=O)c(C)c1 (stereo not shown) [Compound 904, N-(3-methyl-4-{2-[4-oxo-2-(4-trifluoromethyl-cyclohexyl)-1,3,8-triaza-spiro[4.5]dec-1-ene-8-sulfonyl]-ethyl}-phenyl)-acetamide]
9 | 75 | CCCCC1CCC(C2=NC3(CCN(S(=O)(=O)CCc4ccc(NC(C)=O)cc4C)CC3)C(=O)N2)CC1 (stereo not shown) [Compound 905, N-(4-{2-[2-(4-butyl-cyclohexyl)-4-oxo-1,3,8-triaza-spiro[4.5]dec-1-ene-8-sulfonyl]-ethyl}-3-methyl-phenyl)-acetamide]

Continued, compound first:

Row | SMILES | cAMP production activity (%)
10 | Cc1cc(N2C(=O)CNC2=O)ccc1CCS(=O)(=O)N1CCC2(CC1)N=C(C1CCC(C)CC1)NC2=O (stereo not shown) [Compound 881, 3-(3-methyl-4-{2-[2-(4-methyl-cyclohexyl)-4-oxo-1,3,8-triaza-spiro[4.5]dec-1-ene-8-sulfonyl]-ethyl}-phenyl)-imidazolidine-2,4-dione] | 48
11 | Cc1cc(N2C(=O)CNC2=O)ccc1CCS(=O)(=O)N1CCC2(CC1)N=C(C1CCC(C(C)C)CC1)NC2=O (stereo not shown) [Compound 882, 3-(4-{2-[2-(4-isopropyl-cyclohexyl)-4-oxo-1,3,8-triaza-spiro[4.5]dec-1-ene-8-sulfonyl]-ethyl}-3-methyl-phenyl)-imidazolidine-2,4-dione] | 70
12 | Cc1cc(N2C(=O)CNC2=O)cc(C)c1CCS(=O)(=O)N1CCC2(CC1)N=C(C1CCC(C)CC1)NC2=O (stereo not shown) [Compound 883, 3-(3,5-dimethyl-4-{2-[2-(4-methyl-cyclohexyl)-4-oxo-1,3,8-triaza-spiro[4.5]dec-1-ene-8-sulfonyl]-ethyl}-phenyl)-imidazolidine-2,4-dione] | 56
13 | Cc1cc(N2C(=O)CNC2=O)cc(C)c1CCS(=O)(=O)N1CCC2(CC1)N=C(C1CCC(C(C)C)CC1)NC2=O (stereo not shown) [Compound 884, 3-(4-{2-[2-(4-isopropyl-cyclohexyl)-4-oxo-1,3,8-triaza-spiro[4.5]dec-1-ene-8-sulfonyl]-ethyl}-3,5-dimethyl-phenyl)-imidazolidine-2,4-dione] | 59
14 | Cc1cc(N2C(=O)N(C)C(C)(C)C2=O)cc(C)c1CCS(=O)(=O)N1CCC2(CC1)N=C(C1CCC(C)CC1)NC2=O (stereo not shown) [Compound 885, 3-(3,5-dimethyl-4-{2-[2-(4-methyl-cyclohexyl)-4-oxo-1,3,8-triaza-spiro[4.5]dec-1-ene-8-sulfonyl]-ethyl}-phenyl)-1,5,5-trimethyl-imidazolidine-2,4-dione] | 58
15 | Cc1cc(NC(=O)[C@@H](N)CO)ccc1CCS(=O)(=O)N1CCC2(CC1)N=C(c1cccc(C(F)(F)F)c1)NC2=O [Compound 886, (S)-2-amino-3-hydroxy-N-(3-methyl-4-{2-[4-oxo-2-(3-trifluoromethyl-phenyl)-1,3,8-triaza-spiro[4.5]dec-1-ene-8-sulfonyl]-ethyl}-phenyl)-propionamide] | 68
16 | CC[C@H]1CC[C@H](C2=NC3(CCN(S(=O)(=O)CCc4ccc(N5C(=O)NC(=O)C5(C)C)cc4C)CC3)C(=O)N2)CC1 [Compound 887, 1-(4-{2-[2-(4-ethyl-cyclohexyl)-4-oxo-1,3,8-triaza-spiro[4.5]dec-1-ene-8-sulfonyl]-ethyl}-3-methyl-phenyl)-5,5-dimethyl-imidazolidine-2,4-dione] | 58
17 | Cc1cc(OC2CCNCC2)ccc1CCS(=O)(=O)N1CCC2(CC1)N=C(c1cccc(OC(F)(F)F)c1)NC2=O [Compound 889, 8-{2-[2-Methyl-4-(piperidin-4-yloxy)-phenyl]-ethanesulfonyl}-2-(3-trifluoromethoxy-phenyl)-1,3,8-triaza-spiro[4.5]dec-1-en-4-one hydrochloride] | 26
18 | Cc1cc(C(=O)N(C)C)ccc1CCS(=O)(=O)N1CCC2(CC1)N=C(C1CCC(F)(F)CC1)NC2=O [Compound 890, 4-{2-[2-(4,4-Difluoro-cyclohexyl)-4-oxo-1,3,8-triaza-spiro[4.5]dec-1-ene-8-sulfonyl]-ethyl}-3,N,N-trimethyl-benzamide] | 61
19 | Cc1cc(C(=O)N(C)C)ccc1CCS(=O)(=O)N1CCC2(CC1)N=C(c1ccc(S(C)(=O)=O)cc1)NC2=O [Compound 891, 4-{2-[2-(4-methanesulfonyl-phenyl)-4-oxo-1,3,8-triaza-spiro[4.5]dec-1-ene-8-sulfonyl]-ethyl}-3,N,N-trimethyl-benzamide] | 8.6
20 | Cc1cc(C(=O)N(C)C)ccc1CCS(=O)(=O)N1CCC2(CC1)N=C(/C=C/c1cccc(C(F)(F)F)c1)NC2=O [Compound 892, 3,N,N-trimethyl-4-(2-{4-oxo-2-[(E)-2-(3-trifluoromethyl-phenyl)-vinyl]-1,3,8-triaza-spiro[4.5]dec-1-ene-8-sulfonyl}-ethyl)-benzamide] | 51
21 | Cc1cc(C(=O)N(C)C)ccc1CCS(=O)(=O)N1CCC2(CC1)N=C(C#Cc1ccccc1)NC2=O [Compound 893, 3,N,N-trimethyl-4-[2-(4-oxo-2-phenylethynyl-1,3,8-triaza-spiro[4.5]dec-1-ene-8-sulfonyl)-ethyl]-benzamide] | 14
22 | CCCCC1CCC(C2=NC3(CCN(S(=O)(=O)CCc4ccc(C(=O)N(C)C)cc4C)CC3)C(=O)N2)CC1 (stereo not shown) [Compound 894, 4-{2-[2-(4-butyl-cyclohexyl)-4-oxo-1,3,8-triaza-spiro[4.5]dec-1-ene-8-sulfonyl]-ethyl}-3,N,N-trimethyl-benzamide] | 85
23 | Cc1cc(C(=O)N(C)C)ccc1CCS(=O)(=O)N1CCC2(CC1)N=C(C1CCC(C(C)(C)C)CC1)NC2=O (stereo not shown) [Compound 895, 4-{2-[2-(4-tert-butyl-cyclohexyl)-4-oxo-1,3,8-triaza-spiro[4.5]dec-1-ene-8-sulfonyl]-ethyl}-3,N,N-trimethyl-benzamide] | 90
24 | CCC1CCC(C2=NC3(CCN(S(=O)(=O)CCc4ccc(C(=O)N(C)C)cc4C)CC3)C(=O)N2)CC1 (stereo not shown) [Compound 896, 4-{2-[2-(4-ethyl-cyclohexyl)-4-oxo-1,3,8-triaza-spiro[4.5]dec-1-ene-8-sulfonyl]-ethyl}-3,N,N-trimethyl-benzamide] | 83
25 | Cc1cc(C(=O)N(C)C)ccc1CCS(=O)(=O)N1CCC2(CC1)N=C(C1CCC(CCCC(F)(F)F)CC1)NC2=O (stereo not shown) [Compound 897, 3,N,N-trimethyl-4-(2-{4-oxo-2-[4-(4,4,4-trifluoro-butyl)-cyclohexyl]-1,3,8-triaza-spiro[4.5]dec-1-ene-8-sulfonyl}-ethyl)-benzamide] | 85
